Patent US8012949B2, “Bisphosphonate compounds and methods with enhanced potency for multiple targets including FPPS, GGPPS, and DPPS” (The Board of Trustees of the University of Illinois, priority 2004, dated 2011)
Like-named read-outs stand apart in the source and are kept apart here.

What was measured:
[1] = biological target: T1, human FPPS (Homo sapiens, UniProt P14324); assay: human FPPS enzyme inhibition; format: biochemical; conditions: Table 1, experimental
T1 construct: made in house
T1 sequence (P14324 1-419): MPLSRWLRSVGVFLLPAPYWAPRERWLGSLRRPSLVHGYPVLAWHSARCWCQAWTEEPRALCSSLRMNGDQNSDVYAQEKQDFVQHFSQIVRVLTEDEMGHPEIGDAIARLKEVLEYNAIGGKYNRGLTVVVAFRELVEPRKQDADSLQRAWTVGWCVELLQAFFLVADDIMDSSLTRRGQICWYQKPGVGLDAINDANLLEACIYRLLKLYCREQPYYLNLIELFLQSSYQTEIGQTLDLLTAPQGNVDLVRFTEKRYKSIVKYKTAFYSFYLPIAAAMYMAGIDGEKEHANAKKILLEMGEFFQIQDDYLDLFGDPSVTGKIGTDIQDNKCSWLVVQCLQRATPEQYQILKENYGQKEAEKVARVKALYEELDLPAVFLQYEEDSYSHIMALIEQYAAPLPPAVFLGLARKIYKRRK
From the text: (§1) To test our polypharmaceutical hypothesis, we expressed three enzymes: human FPPS, GGPPS and DPPS, and tested each for their inhibition by a series of bisphosphonates.

[2] = biological target: T2, human DPPS (Homo sapiens, UniProt Q5T2R2); assay: human DPPS enzyme inhibition; format: biochemical; conditions: Table 1, experimental; for Ki: read-out: DPPS_pKi (converted)
T2 construct: made in house
T2 sequence (Q5T2R2 1-415): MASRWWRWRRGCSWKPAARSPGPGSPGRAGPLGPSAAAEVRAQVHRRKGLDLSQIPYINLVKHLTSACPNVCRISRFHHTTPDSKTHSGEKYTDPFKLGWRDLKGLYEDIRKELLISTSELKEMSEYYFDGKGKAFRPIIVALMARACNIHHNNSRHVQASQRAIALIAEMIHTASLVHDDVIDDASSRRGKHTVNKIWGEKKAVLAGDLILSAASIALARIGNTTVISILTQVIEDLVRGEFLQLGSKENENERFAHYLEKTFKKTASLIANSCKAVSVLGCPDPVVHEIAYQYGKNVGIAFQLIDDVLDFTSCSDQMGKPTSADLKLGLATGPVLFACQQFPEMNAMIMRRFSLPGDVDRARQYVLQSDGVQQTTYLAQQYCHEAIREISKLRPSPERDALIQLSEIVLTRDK
T2 sequence (Q86YH6 1-399 partner): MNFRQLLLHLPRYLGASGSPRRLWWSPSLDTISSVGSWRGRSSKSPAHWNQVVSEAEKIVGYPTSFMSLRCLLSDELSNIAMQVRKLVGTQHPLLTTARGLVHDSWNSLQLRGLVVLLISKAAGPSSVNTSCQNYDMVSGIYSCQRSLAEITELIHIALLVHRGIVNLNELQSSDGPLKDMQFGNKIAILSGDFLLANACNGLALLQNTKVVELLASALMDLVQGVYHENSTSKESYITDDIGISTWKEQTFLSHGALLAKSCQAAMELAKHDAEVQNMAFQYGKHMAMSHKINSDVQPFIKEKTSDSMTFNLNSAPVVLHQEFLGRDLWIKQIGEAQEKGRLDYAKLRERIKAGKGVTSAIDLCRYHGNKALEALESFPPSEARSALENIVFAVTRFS
From the text: as §1

[3] = system: SF-268 (central nervous system glioblastoma); assay: SF-268 cell growth inhibition (MTT); format: cell-based, human; conditions: Table 1, experimental; for IC50: Homo sapiens, SF-268, read-out: SF-268 pIC50 (converted)
From the text: (§2) Cell Growth Inhibition Assays. […] A broth microdilution method was used to determine IC50 values for growth inhibition by each bisphosphonate. […] NBPs were typically initially dissolved in H2O (0.01 M) while NNBPs were typically dissolved in DMSO (0.01 M).
(§3) GraphPad PRISM® version 4.0 software for windows (GraphPad Software Inc., San Diego, Calif., www.graphpad.com) was used to fit the data to a rectangular hyperbolic function: I=(ImaxC)/(IC50+C); […]

[4] = system: MCF-7 (breast adenocarcinoma); assay: MCF-7 cell growth inhibition (MTT), incl. FOH/GGOH rescue; format: cell-based, human; conditions: for IC50: Homo sapiens, MCF7
From the text: as §2
GraphPad PRISM® version 4.0 software for windows (GraphPad Software Inc., San Diego, Calif., www.graphpad.com) was used to fit the data to a rectangular hyperbolic function: I=(ImaxC)/(IC50+C);
For the “rescue” experiments, stock solutions of FOH or GGOH were prepared (in ethanol) and the requisite amounts added to the incubation media to produce a fixed 20 μM concentration.

[5] = system: NCI-H460 (lung large cell); assay: NCI-H460 cell growth inhibition (MTT); format: cell-based, human; conditions: Table 1, experimental; for IC50: Homo sapiens, NCI-H460, read-out: NCI-H460 pIC50 (converted)
From the text: as §2, §3

[6] = system: Vγ2Vδ2 T cells; assay: γδ T cell activation (TNF-α release and proliferation); format: cell-based, human; conditions: Table 2, -log10(value, M)
Protocol: γδ T Cell Assays. Vγ2Vδ2 T cell TNF-α release and proliferation were performed basically as described previously^1. Briefly, to measure bioactivity for Vγ2Vδ2 T cells, the CD4^+ JN.24, CD4^+ HF.2, CD8αα^+ 12G12, or the CD4^−8^− HD.108 Vγ2Vδ2 T cell clones were stimulated with phosphoantigens in the presence of CP.EBV (an EBV transformed B cell line) for CD4^+ clones or Va-2 (a transformed fibroblast) for CD8αα^+ and CD4^−8^− clones. CP.EBV and Va-2 were fixed with 0.05% glutaraldehyde (EM grade, Sigma, Mo.) for use as APCs. […] Curve fitting minima for each experiment (e.g. TNF-α release from JN.24 cells) were determined using the Global Fitting technique, as implemented in Prism 4.0. Curve fitting maxima were optimized for each individual compound without the use of any constraints.

[7] = Table 1, experimental, read-out: MCF-7 pIC50 (converted)

## CCCCCCCCCCCCCC[S+](C)CC(P(=O)([O-])O)P(=O)(O)O (stereo not shown) [BPH-694]
[1]
  FPPS pKi (M): 7.1 M
[2]
  DPPS pKi: 6.6
[3]
  SF-268 pIC50 (M): 5.9 M
[4]; Table 1, experimental
  MCF-7 pIC50 (M): 4.9 M
[4]; Table 2, -log10(value, M)
  MCF-7 Cell pIC50 (M): 6.69 M
[5]
  NCI-H460 pIC50 (M): 6.0 M
[6]
  γδ T Cell Avg pED50 (M): 6.20 M

## CCCCCCCCc1cc[n+](CC(P(=O)([O-])O)P(=O)(O)O)cc1 (stereo not shown) [BPH-717]
[1]; read-out: FPPS pKi (converted)
  Ki: 20 nM
[2]
  Ki: 79.4 nM
[3]
  IC50: 631 nM
[4]; [7]
  IC50: 501 nM
[5]
  IC50: 631 nM

## Cc1ccc[n+](CC(P(=O)([O-])O)P(=O)(O)O)c1 (stereo not shown) [BPH-474]
[1]
  FPPS pKi (M): 8.4 M
[2]
  DPPS pKi: 6.9
[3]
  SF-268 pIC50 (M): 4.1 M
[4]; Table 1, experimental
  MCF-7 pIC50 (M): 4.1 M
[4]; Table 2, -log10(value, M)
  MCF-7 Cell pIC50 (M): 4.42 M
[5]
  NCI-H460 pIC50 (M): 4.2 M
[6]
  γδ T Cell Avg pED50 (M): 3.85 M

## O=P([O-])(O)C(O)(C[n+]1cccc(-c2ccccc2)c1)P(=O)(O)O (stereo not shown) [BPH-300]
[1]
  FPPS pKi (M): 8.3 M
[2]
  DPPS pKi: 6.9
[3]
  SF-268 pIC50 (M): 4.5 M
[4]; Table 1, experimental
  MCF-7 pIC50 (M): 4.4 M
[5]
  NCI-H460 pIC50 (M): 4.5 M

## CCCCCCCC[S+](C)CC(P(=O)([O-])O)P(=O)(O)O (stereo not shown) [BPH-683]
[2]
  Ki: 63.1 nM
[3]
  IC50: 12600 nM
[4]; [7]
  IC50: 20000 nM
[4]; Table 2, -log10(value, M), read-out: MCF-7 Cell pIC50 (converted)
  IC50: 6760 nM
[5]
  IC50: 15800 nM
[6]; Homo sapiens, T-cell, read-out: γδ T Cell Avg pED50 (converted)
  EC50: 107000 nM

## O=P([O-])(O)C(C[n+]1cccc(Br)c1)P(=O)(O)O (stereo not shown) [BPH-483]
[1]
  FPPS pKi (M): 8.5 M
[2]
  DPPS pKi: 6.8
[3]
  SF-268 pIC50 (M): 4.0 M
[4]; Table 1, experimental
  MCF-7 pIC50 (M): 4.0 M
[4]; Table 2, -log10(value, M)
  MCF-7 Cell pIC50 (M): 3.84 M
[5]
  NCI-H460 pIC50 (M): 4.1 M
[6]
  γδ T Cell Avg pED50 (M): 4.04 M

## CC(C)CCCC(C)CCOc1ccc[n+](CC(P(=O)([O-])O)P(=O)(O)O)c1 (stereo not shown) [BPH-728]
[1]
  FPPS pKi (M): 6.8 M
[2]
  DPPS pKi: 6.3
[3]
  SF-268 pIC50 (M): 4.9 M
[4]; Table 1, experimental
  MCF-7 pIC50 (M): 4.5 M
[4]; Table 2, -log10(value, M)
  MCF-7 Cell pIC50 (M): 5.59 M
[5]
  NCI-H460 pIC50 (M): 4.6 M
[6]
  γδ T Cell Avg pED50 (M): 5.28 M

## O=P([O-])(O)C(O)(C[n+]1ccccc1)P(=O)(O)O (stereo not shown) [BPH-278]
[1]
  FPPS pKi (M): 8.6 M
[2]
  DPPS pKi: 7.2
[3]
  SF-268 pIC50 (M): 4.3 M
[4]; Table 1, experimental
  MCF-7 pIC50 (M): 4.1 M
[4]; Table 2, -log10(value, M)
  MCF-7 Cell pIC50 (M): 4.10 M
[5]
  NCI-H460 pIC50 (M): 4.1 M
[6]
  γδ T Cell Avg pED50 (M): 4.20 M

## CCC[S+](C)CC(P(=O)([O-])O)P(=O)(O)O (stereo not shown) [BPH-685]
[2]
  DPPS pKi: 6.7
[3]
  SF-268 pIC50 (M): 3.7 M
[4]; Table 1, experimental
  MCF-7 pIC50 (M): 3.6 M
[4]; Table 2, -log10(value, M)
  MCF-7 Cell pIC50 (M): 4.02 M
[5]
  NCI-H460 pIC50 (M): 3.9 M
[6]
  γδ T Cell Avg pED50 (M): 3.81 M

## CCOCCOCCCc1ccc[n+](CC(P(=O)([O-])O)P(=O)(O)O)c1 (stereo not shown) [BPH-727]
[1]
  FPPS pKi (M): 8.2 M
[2]
  DPPS pKi: 6.8
[3]
  SF-268 pIC50 (M): 3.7 M
[4]; Table 1, experimental
  MCF-7 pIC50 (M): 3.5 M
[4]; Table 2, -log10(value, M)
  MCF-7 Cell pIC50 (M): 3.62 M
[5]
  NCI-H460 pIC50 (M): 3.5 M
[6]
  γδ T Cell Avg pED50 (M): 3.77 M

## O=P(O)(O)C(O)(Cc1cccnc1)P(=O)(O)O [BPH-2]
[2]
  DPPS pKi: 7.3
[3]
  SF-268 pIC50 (M): 3.9 M
[4]; Table 1, experimental
  MCF-7 pIC50 (M): 3.8 M
[4]; Table 2, -log10(value, M)
  MCF-7 Cell pIC50 (M): 3.13 M
[5]
  NCI-H460 pIC50 (M): 3.7 M
[6]
  γδ T Cell Avg pED50 (M): 4.29 M
